Our source for the IC50 values is patent US20240199546A1, “INHIBITORS OF SOLUTE CARRIER FAMILY 6A MEMBER 19 (SLC6A19) AND METHODS OF USE THEREOF” (Maze Therapeutics, Inc., priority 2022, published 2024).

The structures appear in SMILES notation. pIC50: −log10 of the molar value.

The target of one test is T1, human SLC6A19 and TMEM27 (Homo sapiens, UniProt Q695T7).
T1 construct: expressed in transfected cells
T1 sequence (Q695T7 1-634): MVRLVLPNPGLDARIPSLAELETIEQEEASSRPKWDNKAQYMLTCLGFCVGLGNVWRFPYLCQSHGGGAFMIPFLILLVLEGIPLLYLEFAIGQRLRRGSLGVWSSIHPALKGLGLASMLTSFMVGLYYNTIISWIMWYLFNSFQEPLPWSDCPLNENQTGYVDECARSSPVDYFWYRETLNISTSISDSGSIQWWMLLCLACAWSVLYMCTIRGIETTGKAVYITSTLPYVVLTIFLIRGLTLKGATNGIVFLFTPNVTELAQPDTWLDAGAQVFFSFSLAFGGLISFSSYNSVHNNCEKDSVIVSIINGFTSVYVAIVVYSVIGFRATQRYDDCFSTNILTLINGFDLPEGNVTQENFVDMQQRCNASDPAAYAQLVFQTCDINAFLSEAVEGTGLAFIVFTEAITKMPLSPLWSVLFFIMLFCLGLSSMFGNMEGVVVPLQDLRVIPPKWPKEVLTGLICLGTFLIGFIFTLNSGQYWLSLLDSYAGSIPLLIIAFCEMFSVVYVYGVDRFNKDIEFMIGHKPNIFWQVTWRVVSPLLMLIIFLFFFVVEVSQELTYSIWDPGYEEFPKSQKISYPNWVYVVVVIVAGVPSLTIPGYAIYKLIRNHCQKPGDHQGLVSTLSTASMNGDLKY
T1 sequence (Q9HBJ8 15-222 partner): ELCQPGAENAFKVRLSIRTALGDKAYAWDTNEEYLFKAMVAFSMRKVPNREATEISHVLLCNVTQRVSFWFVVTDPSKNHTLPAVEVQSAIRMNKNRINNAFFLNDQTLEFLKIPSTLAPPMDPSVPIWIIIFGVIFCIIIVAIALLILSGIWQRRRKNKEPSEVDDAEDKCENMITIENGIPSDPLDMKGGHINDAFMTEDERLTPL
The test is described as follows: Radiolabelled (3H) leucine uptake in CHO cells with doxycycline-inducible expression of human SLC6A19 and TMEM27 (Example B-1). The test is classed as cell-based. Particulars: CHO cells with doxycycline-inducible expression of human SLC6A19 and TMEM27, read-out: SLC6A19_Radioligand Uptake Assay IC50. The method in brief:
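CHO cells were induced with doxycycline for 18 h at 37 °C, washed in HBSS, then exposed to compounds for 1 h: 8-point, 3-fold dilutions in duplicate, 0.5% DMSO final. Uptake measured by scintillation counting after 2 h shaking. Activity normalized with positive control as 0% and DMSO as 100%.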
With `Cc1cc(COc2cc3[nH]c(CNC(=O)CN)cc3cc2Cl)on1` [Compound 617, 2-amino-N-((5-chloro-6-((3-methylisoxazol-5-yl)methoxy)-1H-indol-2-yl)methyl)acetamide], the negative-log IC50 (pIC50) was 5.45.

Regarding `Cc1cc(COc2cc3[nH]c(CNC(=O)[C@H]4CCCN4)cc3cc2Cl)on1` [Compound 618, (R)—N-((5-chloro-6-((3-methylisoxazol-5-yl)methoxy)-1H-indol-2-yl)methyl)pyrrolidine-2-carboxamide], the negative-log IC50 (pIC50) is 5.12.

`O=C(NCCO)NCc1cc2cc(Cl)c(OCc3cscn3)cc2[nH]1` [Compound 619, 1-((5-chloro-6-(thiazol-4-ylmethoxy)-1H-indol-2-yl)methyl)-3-(2-hydroxyethyl)urea]: the pIC50 is < 5.07.

Regarding `CCOC(=O)NCc1cc2cc(Cl)c(OCc3cscn3)cc2[nH]1` [Compound 620, ethyl ((5-chloro-6-(thiazol-4-ylmethoxy)-1H-indol-2-yl)methyl)carbamate], the negative-log IC50 (pIC50) was 6.74.

Take `COC(=O)NCc1cc2cc(F)c(OCc3cc(C)no3)cc2[nH]1` [Compound 621, methyl ((5-fluoro-6-((3-methylisoxazol-5-yl)methoxy)-1H-indol-2-yl)methyl)carbamate]: the negative logarithm of the IC50 (pIC50) is 5.75.

On to `COC(=O)NCc1cc2cc(F)c(OCc3cscn3)cc2[nH]1` [Compound 622, methyl ((5-fluoro-6-(thiazol-4-ylmethoxy)-1H-indol-2-yl)methyl)carbamate], for which the pIC50 was 7.07.

`CC(C)OC(=O)NCc1cc2cc(Cl)c(OCc3cscn3)cc2[nH]1` [Compound 623, isopropyl ((5-chloro-6-(thiazol-4-ylmethoxy)-1H-indol-2-yl)methyl)carbamate]: the negative-log IC50 (pIC50) is 6.27.

On to `COC(=O)NCc1cc2cc(Cl)c(OCc3cc(C)no3)cc2[nH]1` [Compound 625, methyl ((5-chloro-6-((3-methylisoxazol-5-yl)methoxy)-1H-indol-2-yl)methyl)carbamate], for which the pIC50 is 7.04.

For the molecule `CN(Cc1cn[nH]c1)C(=O)NCc1cc2cc(Cl)c(OCc3cscn3)cc2[nH]1` [Compound 626, 1-((1H-pyrazol-4-yl)methyl)-3-((5-chloro-6-(thiazol-4-ylmethoxy)-1H-indol-2-yl)methyl)-1-methylurea], the pIC50 was 6.12.

Regarding `CN(Cc1cn[nH]c1)C(=O)NCc1cc2cc(Cl)c(OCc3ccon3)cc2[nH]1` [Compound 629, 1-((1H-pyrazol-4-yl)methyl)-3-((5-chloro-6-(isoxazol-3-ylmethoxy)-1H-indol-2-yl)methyl)-1-methylurea], the pIC50 is 5.97.

On to `CC1(C(=O)NCc2cc3cc(Cl)c(OCC4CC4)cc3[nH]2)CC1` [Compound 633, N-((5-chloro-6-(cyclopropylmethoxy)-1H-indol-2-yl)methyl)-1-methylcyclopropane-1-carboxamide], for which the pIC50 is 6.74.

`CC1(C(=O)NCc2cc3cc(Cl)c(OCCC4CC4)cc3[nH]2)CC1` [Compound 635, N-((5-chloro-6-(2-cyclopropylethoxy)-1H-indol-2-yl)methyl)-1-methylcyclopropane-1-carboxamide]: the pIC50 is 6.71.

Take `Cc1cc(COc2cc3[nH]c(CNC(=O)NC4CC4)cc3cc2Cl)on1` [Compound 636, 1-((5-chloro-6-((3-methylisoxazol-5-yl)methoxy)-1H-indol-2-yl)methyl)-3-cyclopropylurea]: the negative logarithm of the IC50 (pIC50) is 6.79.

`Cc1cc(COc2cc3[nH]c(CNC(=O)NC(C)C)cc3cc2Cl)on1` [Compound 638, 1-((5-chloro-6-((3-methylisoxazol-5-yl)methoxy)-1H-indol-2-yl)methyl)-3-isopropylurea]: the pIC50 is 6.58.

Turning to `CC1(C(=O)NCc2[nH]c3cc(OCc4cscn4)ccc3c2C(F)(F)F)CC1` [Compound 640, 1-methyl-N-((6-(thiazol-4-ylmethoxy)-3-(trifluoromethyl)-1H-indol-2-yl)methyl)cyclopropane-1-carboxamide], the negative-log IC50 (pIC50) is 6.18.

On to `CC1(C(=O)NCc2cc3cc(CCC#N)c(OCc4cscn4)cc3[nH]2)CC1` [Compound 641, N-((5-(2-cyanoethyl)-6-(thiazol-4-ylmethoxy)-1H-indol-2-yl)methyl)-1-methylcyclopropane-1-carboxamide], for which the pIC50 was 5.68.

As to `CC1(C(=O)NCc2cc3cc(CCC#N)c(OCc4ccon4)cc3[nH]2)CC1` [Compound 642, N-((5-(2-cyanoethyl)-6-(isoxazol-3-ylmethoxy)-1H-indol-2-yl)methyl)-1-methylcyclopropane-1-carboxamide], the pIC50 is 5.56.

For `CC1(C(=O)NCc2cc3cc(CC#N)c(OCc4cscn4)cc3[nH]2)CC1` [Compound 643, N-((5-(cyanomethyl)-6-(thiazol-4-ylmethoxy)-1H-indol-2-yl)methyl)-1-methylcyclopropane-1-carboxamide], the pIC50 is 6.20.

In the case of `CC1(C(=O)NCc2cc3cc(CC#N)c(OCc4ccon4)cc3[nH]2)CC1` [Compound 644, N-((5-(cyanomethyl)-6-(isoxazol-3-ylmethoxy)-1H-indol-2-yl)methyl)-1-methylcyclopropane-1-carboxamide], the negative-log IC50 (pIC50) was 6.23.

As for `CC1(C(=O)NCc2cc3cc(C(F)F)c(OCc4ccon4)cc3[nH]2)CC1` [Compound 646, N-((5-(difluoromethyl)-6-(isoxazol-3-ylmethoxy)-1H-indol-2-yl)methyl)-1-methylcyclopropane-1-carboxamide], the negative-log IC50 (pIC50) is 6.27.

`Cc1cc(COc2cc3[nH]c(CNC(=O)C4(C)CC4)cc3cc2C(F)F)no1` [Compound 647, N-((5-(difluoromethyl)-6-((5-methylisoxazol-3-yl)methoxy)-1H-indol-2-yl)methyl)-1-methylcyclopropane-1-carboxamide]: the pIC50 is 6.17.

As to `CC(=O)NCc1cc2cc(Cl)c(OCCOCC(F)F)cc2[nH]1` [Compound 650, N-((5-chloro-6-(2-(2,2-difluoroethoxy)ethoxy)-1H-indol-2-yl)methyl)acetamide], the pIC50 was 6.00.

Consider `O=C(NCc1cc2cc(C3CC3)c(OCc3cscn3)cc2[nH]1)N1CCC1` [Compound 651, N-((5-cyclopropyl-6-(thiazol-4-ylmethoxy)-1H-indol-2-yl)methyl)azetidine-1-carboxamide], for which the pIC50 was 6.47.

For the molecule `O=C(NCc1cc2cc(C3CC3)c(OCc3cscn3)cc2[nH]1)N1CCCC1` [Compound 652, N-((5-cyclopropyl-6-(thiazol-4-ylmethoxy)-1H-indol-2-yl)methyl)pyrrolidine-1-carboxamide], the negative-log IC50 (pIC50) is 6.44.

In the case of `O=C(NCc1cc2cc(C3CC3)c(OCc3ccon3)cc2[nH]1)N1CCC1` [Compound 653, N-((5-cyclopropyl-6-(isoxazol-3-ylmethoxy)-1H-indol-2-yl)methyl)azetidine-1-carboxamide], the negative logarithm of the IC50 (pIC50) is 6.41.

On to `O=C(NCc1cc2cc(C3CC3)c(OCc3ccon3)cc2[nH]1)N1CCCC1` [Compound 654, N-((5-cyclopropyl-6-(isoxazol-3-ylmethoxy)-1H-indol-2-yl)methyl)pyrrolidine-1-carboxamide], for which the negative logarithm of the IC50 (pIC50) was 6.27.

With `CC1(C(=O)NCc2cc3cc(C4(F)CC4)c(OCc4ccon4)cc3[nH]2)CC1` [Compound 655, N-((5-(1-fluorocyclopropyl)-6-(isoxazol-3-ylmethoxy)-1H-indol-2-yl)methyl)-1-methylcyclopropane-1-carboxamide], the negative-log IC50 (pIC50) is < 5.14.

Consider `CC1(C(=O)NCc2cc3cc(C4(F)CC4)c(OCc4cscn4)cc3[nH]2)CC1` [Compound 656, N-((5-(1-fluorocyclopropyl)-6-(thiazol-4-ylmethoxy)-1H-indol-2-yl)methyl)-1-methylcyclopropane-1-carboxamide], for which the negative-log IC50 (pIC50) is 5.07.

`CC1(C(=O)NCc2cc3cc(C4CC4(F)F)c(OCc4cscn4)cc3[nH]2)CC1` (stereo not shown) [Compound 657, N-((5-(2,2-difluorocyclopropyl)-6-(thiazol-4-ylmethoxy)-1H-indol-2-yl)methyl)-1-methylcyclopropane-1-carboxamide]: the pIC50 is 6.18.

`CC1(C(=O)NCc2cc3cc(-c4ccon4)c(OCc4cscn4)cc3[nH]2)CC1` [Compound 659, N-((5-(isoxazol-3-yl)-6-(thiazol-4-ylmethoxy)-1H-indol-2-yl)methyl)-1-methylcyclopropane-1-carboxamide]: the pIC50 was 5.71.

Still in this test, the particulars now being: SLC6A19_Radioligand Uptake Assay IC50, CHO cells with doxycycline-inducible expression of human SLC6A19 and TMEM27.
The molecule `Cc1cc(COc2cc3[nH]c(CNC(N)=O)cc3cc2Cl)on1` [Compound 637, 1-((5-chloro-6-((3-methylisoxazol-5-yl)methoxy)-1H-indol-2-yl)methyl)urea] showed a pIC50 of 6.42.

Usually pIC50 stands for the IC50 on a negative log10 scale, so that one unit is a factor of ten.
